The values below are quoted from earlier work in patent US11077150B2, “Methods and compositions for treatment of eye conditions” (priority 2018, dated 2021).

The conditions of data set [1]: oral doses of up to 600 mg; elderly subjects.
For data set [2] the following is noted: topically applied in light mineral oil; volunteers.
For data set [3] the following is noted: 75 symptomatic patients; nine-month trial; eye drops.
For data set [4] the following is noted: rat model of DR.
Another data set addresses CB2 receptors (Homo sapiens, UniProt P34972).

Chain of CB2 receptors (P34972 whole entry): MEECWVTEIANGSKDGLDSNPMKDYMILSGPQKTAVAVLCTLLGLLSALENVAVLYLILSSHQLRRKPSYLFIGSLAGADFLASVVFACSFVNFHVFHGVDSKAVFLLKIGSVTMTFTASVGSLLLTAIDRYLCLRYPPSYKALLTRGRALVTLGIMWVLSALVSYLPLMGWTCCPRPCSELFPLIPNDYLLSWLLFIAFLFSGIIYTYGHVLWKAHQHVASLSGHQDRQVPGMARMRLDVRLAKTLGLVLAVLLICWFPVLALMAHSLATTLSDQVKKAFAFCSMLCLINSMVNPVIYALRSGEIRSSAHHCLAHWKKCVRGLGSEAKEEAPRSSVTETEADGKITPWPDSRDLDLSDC

As for `O=C(O)CCCCC1CCSS1` (stereo not drawn) [lipoic acid, α-lipoic acid], the tolerability result in data set [1] was “well tolerated”.

As to `CCCCCc1cc(O)c2c(c1)OC(C)(C)[C@@H]1CCC(C)=C[C@@H]21` [THC, Δ^9-tetrahydrocannabinol], in data set [2], the adverse effects result is “burning sensation, lid swelling” and the “effect on interocular pressure” value is listed as “did not improve”.

Regarding `CC(=O)NCCC(=O)N[C@@H](Cc1cnc[nH]1)C(=O)O` [N-acetyl carnosine], in data set [3], the glare sensitivity result is “significant improvement” and the visual acuity result is “improvement”.

As to `C=C(C)[C@@H]1CCC(C)=C[C@H]1c1c(O)cc(CCCCC)cc1O` [Cannabidiol, cannabidiol], the water solubility result is given as “very low”. In data set [4], the “oxidative stress and neurotoxicity” value is “significantly reduced”; the retinal cell death result was “prevented”. The “affinity for CB2 receptors” value on CB2 receptors was “low affinity”.
